We go through 24 molecules from USRE38257E1, “Piperdine derivatives and hypotensives containing the same” (Ajinomoto Co., Inc., priority 1988, dated 2003).

In the assay the test system is male spontaneously hypertensive rats. Kind of assay: Decrease in systolic blood pressure in spontaneously hypertensive rats after intravenous bolus injection, indirect (tail-cuff) method. The settings on record: for Decrease in systolic blood pressure (mmHg) time after administration (hour) 0.5: 0.5 hour after administration; for Decrease in systolic blood pressure (mmHg) time after administration (hour) 4: 4 hours after administration. It counts as in vivo, rat. Here is the method: As test animals, four male spontaneously hypertensive rats (weight 400 to 440 g) that were sufficiently adapted for feeding and in which hypertension was confirmed were used.
Physiological saline aqueous solution containing 2.5% Nicolle and 2.5% ethanol of sample was intravenously administered by bolus injection at a dose of 1 ml per 1 kg of body weight. Systolic blood pressure after administration was measured by the indirect (tail-cuff) method.

Where [1] appears, read: dose 10 mg/kg i.v. bolus, hydrochloride, 10 mg/kg.

The structures appear in SMILES notation.

With `CC(=O)N(CCCN1CCC(=C2c3ccccc3C=Cc3ccccc32)CC1)C1CCCCC1.Cl` [Example 267, N-Acetyl-N-(3-4-(5H-Dibenzo[a,d]cyclohepten-5-ylidene)-1-piperidinyl)-1-propylcyclohexylamine hydrochloride], under “dose 10 mg/kg i.v. bolus”, the “Decrease in systolic blood pressure (mmHg) time after administration (hour) 0.5” value (shortened to “Decrease in systolic blood pressure … (hour) 0.5”) was −40 mmHg and the “Decrease in systolic blood pressure (mmHg) time after administration (hour) 4” value (“Decrease in systolic blood pressure … (hour) 4” below) came to 0 mmHg.
Consider `Cl.O=C1CCCCN1CCCCN1CCC(=C2c3ccccc3C=Cc3ccccc32)CC1` [Example 268, N-(4-(4-(5H-Dibenzo[a,d]cyclohepten-5-ylidene)-1-piperidinyl)-1-butyl)-2-piperidone hydrochloride], for which, under “dose 10 mg/kg i.v. bolus”, the “Decrease in systolic blood pressure … (hour) 0.5” value is recorded as −29 mmHg and the “Decrease in systolic blood pressure … (hour) 4” value is on record as 13 mmHg.
In the case of `CCOC(=O)C1(CCCCN2CCC(=C3c4ccccc4C=Cc4ccccc43)CC2)CCCCC1.Cl` [Example 269, 1-(4-(4-(5H-Dibenzo[a,d]cyclohepten-5-ylidene)-1-piperidinyl)-1-butyl)-1-ethoxycarbonxylcyclohexane hydrochloride], for the setting “dose 10 mg/kg i.v. bolus”, the “Decrease in systolic blood pressure … (hour) 0.5” value worked out at 143 mmHg and the “Decrease in systolic blood pressure … (hour) 4” value was −71 mmHg.
With `C1=Cc2ccccc2C(=C2CCN(CCCc3cccnc3)CC2)c2ccccc21.Cl.Cl` [Example 270, 3-(4-(5H-Dibenzo[a,d]cyclohepten-5-ylidene)-1-piperidinyl)-1-(3-pyridyl)propane dihydrochloride], under “dose 10 mg/kg i.v. bolus”, the “Decrease in systolic blood pressure … (hour) 0.5” value was −18 mmHg and the “Decrease in systolic blood pressure … (hour) 4” value was 2 mmHg.
Regarding `Cl.OCC1(CCCCN2CCC(=C3c4ccccc4C=Cc4ccccc43)CC2)CCCCC1` [Example 272, 1-(4-(4-(5H-Dibenzo[a,d]cyclohepten-5-ylidene)-1-piperidinyl)-1-butyl)-1-hydroxymethylcyclohexane hydrochloride], where the note is “dose 10 mg/kg i.v. bolus”, the “Decrease in systolic blood pressure … (hour) 0.5” value is −76 mmHg and the “Decrease in systolic blood pressure … (hour) 4” value is given as −3 mmHg.
With `CC(=O)OCC1(CCCCN2CCC(=C3c4ccccc4C=Cc4ccccc43)CC2)CCCCC1.Cl` [Example 273, 1-Acetoxymethyl-1-(4-(4-(5H-dibenzo[a,d]cyclohepten-5-ylidene)-1-piperidinyl)-1-butyl)cyclohexane hydrochloride], under “dose 10 mg/kg i.v. bolus”, the “Decrease in systolic blood pressure … (hour) 0.5” value is −37 mmHg and the “Decrease in systolic blood pressure … (hour) 4” value amounted to 5 mmHg.
In the case of `COc1ccc(C(=O)C(C)CCN2CCC(=C3c4ccccc4C=Cc4ccccc43)CC2)cc1OC.Cl` (stereo not drawn) [Example 274, 4-(4-(5H-Dibenzo[a,d]cyclohepten-5-ylidene)-1-piperidinyl)-2-methyl-3′,4′-dimethoxybutyrophenone hydrochloride], for the setting “dose 10 mg/kg i.v. bolus”, the “Decrease in systolic blood pressure … (hour) 0.5” value was −102 mmHg and the “Decrease in systolic blood pressure … (hour) 4” value is −21 mmHg.
`COc1ccc(C(=O)C(CCN2CCC(=C3c4ccccc4C=Cc4ccccc43)CC2)C(C)C)cc1OC.Cl` (stereo not drawn) [Example 275, 4-(4-(5H-Dibenzo[a,d]cyclohepten-5-ylidene)-1-piperidinyl)-2-(2-propyl)-3′,4′-dimethoxybutyrophenone hydrochloride]: where the note is “dose 10 mg/kg i.v. bolus”, the “Decrease in systolic blood pressure … (hour) 0.5” value is on record as −66 mmHg and the “Decrease in systolic blood pressure … (hour) 4” value is on record as −20 mmHg.
With `C=CCC(CCN1CCC(=C2c3ccccc3C=Cc3ccccc32)CC1)C(=O)c1ccc(OC)c(OC)c1.Cl` (stereo not drawn) [Example 276, 2-Allyl-4-(4-(5H-dibenzo[a,d]cyclohepten-5-ylidene)-1-piperidinyl)-3′,4′dimethoxybutyrophenone hydrochloride], for the setting “dose 10 mg/kg i.v. bolus”, the “Decrease in systolic blood pressure … (hour) 0.5” value is reported as −24 mmHg and the “Decrease in systolic blood pressure … (hour) 4” value is recorded as −1 mmHg.
Regarding `CCCC(CCN1CCC(=C2c3ccccc3C=Cc3ccccc32)CC1)C(=O)c1ccc(OC)c(OC)c1.Cl` (stereo not drawn) [Example 277, 4-(4-(5H-dibenzo[a,d]cyclohepten-5-ylidene)-1-piperidinyl)-2-(1-propyl)-3′,4′-dimethoxybutyrophenone hydrochloride], where the note is “dose 10 mg/kg i.v. bolus”, the “Decrease in systolic blood pressure … (hour) 0.5” value is given as −27 mmHg and the “Decrease in systolic blood pressure … (hour) 4” value is reported as 0 mmHg.
On to `CCC(CCN1CCC(=C2c3ccccc3C=Cc3ccccc32)CC1)C(=O)c1ccc(OC)c(OC)c1.Cl` (stereo not drawn) [Example 278, 4-(4-(5H-dibenzo[a,d]cyclohepten-5-ylidene)-1-piperidinyl)-2-ethyl-3′,4′-dimethoxybutyrophenone hydrochloride], for which, for the setting “dose 10 mg/kg i.v. bolus”, the “Decrease in systolic blood pressure … (hour) 0.5” value is −64 mmHg and the “Decrease in systolic blood pressure … (hour) 4” value was 2 mmHg.
In the case of `C1=Cc2ccccc2C(=C2CCN(CCOCC3CCCCC3)CC2)c2ccccc21.Cl` [Example 279], where the note is “dose 3 mg/kg i.v. bolus”, the “Decrease in systolic blood pressure … (hour) 0.5” value is reported as −83 mmHg and the “Decrease in systolic blood pressure … (hour) 4” value is −24 mmHg.
On to `CC(=O)N1CCCC(CCCN2CCC(=C3c4ccccc4C=Cc4ccccc43)CC2)C1.Cl` (stereo not drawn) [Example 280, 1-(n-Acetyl-3-piperidinyl)-3-(4-(5H-Dibenzo[a,d]cyclohepten-5-ylidene)-1-piperidinyl)propane hydrochloride], for which, under “dose 10 mg/kg i.v. bolus”, the “Decrease in systolic blood pressure … (hour) 0.5” value was −50 mmHg and the “Decrease in systolic blood pressure … (hour) 4” value was −11 mmHg.
`C1=Cc2ccccc2C(=C2CCN(CCCC3CCCNC3)CC2)c2ccccc21.Cl.Cl` (stereo not drawn) [Example 281, 3-(4-(5H-Dibenzo[a,d]cyclohepten-5-ylidene)-1-piperidinyl)-1-(3-piperidinyl)propane dihydrochloride]: under “dose 10 mg/kg i.v. bolus”, the “Decrease in systolic blood pressure … (hour) 0.5” value is −31 mmHg and the “Decrease in systolic blood pressure … (hour) 4” value is given as −5 mmHg.
Take `COc1ccc(CCCCN2CCC(=C3c4ccccc4C=Cc4ccccc43)CC2)cc1NC(C)=O.Cl` [Example 282, 1-(3-Acetylamino-4-methoxyphenyl)-4-(4-(5H-dibenzo[a,d]cyclohepten-5-ylidene)-1-piperidinyl)butane hydrochloride]: under “dose 10 mg/kg i.v. bolus”, the “Decrease in systolic blood pressure … (hour) 0.5” value was −72 mmHg and the “Decrease in systolic blood pressure … (hour) 4” value is on record as −15 mmHg.
For `C1=Cc2ccccc2C(=C2CCN(CCCCC3CCCCC3)CC2)c2ccccc21.Cl` [Example 283, 4-(4-(4-(5H-Dibenzo[a,d]cyclohepten-5-ylidene)-1-piperidinyl)-1-butyl)cyclohexane hydrochloride], under setting [1], the “Decrease in systolic blood pressure … (hour) 0.5” value is −112 mmHg and the “Decrease in systolic blood pressure … (hour) 4” value is 4 mmHg.
Regarding `COc1cccc(CCCN2CCC(=C3c4ccccc4C=Cc4ccccc43)CC2)c1OC.Cl` [Example 286, 3-(4-(5H-Dibenzo[a,d]cyclohepten-5-ylidene)-1-piperidinyl)-1-(2,3-dimethoxyphenyl)propane hydrochloride], under “dose 10 mg/kg i.v. bolus”, the “Decrease in systolic blood pressure … (hour) 0.5” value is −134 mmHg and the “Decrease in systolic blood pressure … (hour) 4” value is recorded as −40 mmHg.
For `COc1cc2c(cc1OC)CC(CN1CCC(=C3c4ccccc4C=Cc4ccccc43)CC1)C2.Cl` [Example 287, 2-(4-(5H-Dibenzo[a,d]cyclohepten-5-ylidene)-1-piperidinyl)methyl-5′,6′-dimethoxyindan hydrochloride], for the setting “dose 10 mg/kg i.v. bolus”, the “Decrease in systolic blood pressure … (hour) 0.5” value is listed as −83 mmHg and the “Decrease in systolic blood pressure … (hour) 4” value is −16 mmHg.
As to `C1=Cc2ccccc2C(=C2CCN(CCCc3ccncc3)CC2)c2ccccc21.Cl.Cl` [Example 289, 3-(4-(5H-Dibenzo[a,d]cyclohepten-5-ylidene)-1-piperidinyl)-1-(4-pyridyl)propane dihydrochloride], for the setting “dose 3 mg/kg i.v. bolus”, the “Decrease in systolic blood pressure … (hour) 0.5” value was −20 mmHg and the “Decrease in systolic blood pressure … (hour) 4” value is 10 mmHg.
The like results for `Cl.O=C(NCCN1CCCCC1=C1c2ccccc2C=Cc2ccccc21)c1cccc([N+](=O)[O-])c1` [Example 290, N-(2-(5H-Dibenzo[a,d]cyclohepten-5-ylidene)-1-piperidinyl)ethyl-3-nitrobenzamide hydrochloride] were, in that order, −15 mmHg and 15 mmHg.
The matching figures for `Cl.O=C(NCCN1CCCCC1=C1c2ccccc2C=Cc2ccccc21)c1ccccc1[N+](=O)[O-]` [Example 291, N-(2-(5H-Dibenzo[a,d]cyclohepten-5-ylidene)-1-piperidinyl)ethyl-2-nitrobenzamide hydrochloride]: −8 mmHg and 15 mmHg.
The matching figures for `COc1ccc(C(=O)NCCN2CCCCC2=C2c3ccccc3C=Cc3ccccc32)c(OC)c1.Cl` [Example 292, N-(2-(5H-Dibenzo[a,d]cyclohepten-5-ylidene)-1-piperidinyl)ethyl-2,4-dimethoxybenzamide hydrochloride]: −31 mmHg and 3 mmHg.
With `C1=Cc2ccccc2C(=C2CCN(CCCCc3ccc[nH]3)CC2)c2ccccc21.Cl` [Example 293, 4-(4-(5H-Dibenzo[a,d]cyclohepten-5-ylidene)-1-piperidinyl)-1-(2-pyrolle)-1-butane hydrochloride], where the note is “dose 10 mg/kg i.v. bolus”, the “Decrease in systolic blood pressure … (hour) 0.5” value is listed as −122 mmHg and the “Decrease in systolic blood pressure … (hour) 4” value came out at 4 mmHg.
With `CC(=O)N1CCCCC1CCCN1CCC(=C2c3ccccc3C=Cc3ccccc32)CC1.Cl` (stereo not drawn) [Example 294, 1-(N-Acetyl-2-piperidinyl)-3-(4-(5H-Dibenzo[a,d]cyclohepten-5-ylidene)-1-piperidinyl)propane hydrochloride], where the note is “dose 3 mg/kg i.v. bolus”, the “Decrease in systolic blood pressure … (hour) 0.5” value is given as −17 mmHg and the “Decrease in systolic blood pressure … (hour) 4” value is given as 7 mmHg.
